# Measurements reported in patent US11707440B2 (priority 2017, dated 2023).
# Tests used:
# [1] = test system: subjects with MDD at imminent risk for suicide; experiment: Sustained response, response and remission based on MADRS, […]2001; format: in vivo, human; conditions: esketamine 84 mg; at least 50% MADRS reduction from Day 1 4 hours through Day 25
# Excerpt: • a. Changes from baseline to Day 2 and Day 25 for the MADRS total score • b. Changes from baseline to Day 1 4-hours postdose, Day 2 and Day 25 for the MADRS Suicide Item • c. Changes from baseline to Day 1 4-hours postdose, Day 2, and Day 25 for the clinical global judgment of suicide risk from the Suicide Ideation and Behavior Assessment Tool (SIBAT) • d. Sustained response (Onset of Clinical Response) defined as at least 50% reduction from baseline in MADRS total score with onset on Day 1 that is maintained through the end of the double-blind phase (Day 25) • e. Changes from baseline to Day 1 4-hours postdose, Day 2, and Day 25 for the Beck Scale for Suicidal Ideation (BSS) • f. Changes from baseline to Day 1 4-hours postdose and Day 25 for the Beck Hopelessness Scale
# Sustained response is defined as at least 50% reduction from baseline in MADRS total score with onset on Day 1: 4 hours postdose that is maintained through the end of the double-blind phase (Day 25). Four subjects in the esketamine 84 mg group and 2 subjects in the placebo group had sustained response throughout the double-blind phase.
# [2] = test system: subjects with MDD at imminent risk for suicide; experiment: Beck Scale for Suicidal Ideation (BSS), […]2001; format: in vivo, human; conditions: esketamine 84 mg; Day 1: 4-hours postdose, Day 2 (DB), or End Point (DB)
# Method: The BSS is a 21-item self-reported instrument to detect and measure the severity of suicidal ideation in adults and adolescents aged 17 years and older. The BSS total score represents the severity of suicide ideation, and it is calculated by summing the ratings of the first 19 items; the total score ranges from 0 to 38, with a higher score representing greater suicide ideation. Increasing scores reflect increases in suicidal risk.
# [3] = test system: subjects with MDD at imminent risk for suicide; experiment: MADRS total score, study […]2001; format: in vivo, human; conditions: esketamine 84 mg; baseline to Day 1, 4-hours postdose; ANCOVA
# Excerpt: Primary efficacy variable/Primary Time point: Change from baseline (Day 1, predose) to Day 1, 4-hours postdose in MADRS total score. The MADRS consists of 10 items that cover all of the core depressive symptoms, with each item scoring from 0 (item is not present or is normal) to 6 (severe or continuous presence of the symptom). A higher score represents a more severe condition.
# The primary efficacy endpoint is the change in MADRS total score from baseline to Day 1: 4-hours postdose. MADRS total scores range from 0 to 60. […] As this is a phase 2a proof-of-concept study, statistical significance is based on a two-sided alpha level of 0.20. All p-values presented in this document are two-sided.
# [4] = test system: subjects with MDD at imminent risk for suicide; conditions: esketamine 84 mg
smiles,measurement,setting,value
"CN[C@]1(c2ccccc2Cl)CCCCC1=O [esketamine, (S)-2-(2-chlorophenyl)-2-(methylamino)cyclohexanone]",Subjects with sustained response throughout the double-blind phase,[1],Four
same,BSS total score change vs placebo,[2],no statistically significant differences
same,"MADRS total score, least-square mean difference (SE) from placebo",[3],−5.3 (2.10)
same,Subjects who discontinued from the double-blind phase due to (treatment-emergent) adverse events,[4],5 subjects
same,Subjects with a serious TEAE,[4]; double-blind phase,Four
same,Subjects with at least one TEAE,[4]; double-blind phase,94.3%
same,TEAE dissociation,[4]; double-blind phase,31.4%
same,TEAE dizziness,[4]; double-blind phase,34.3%
same,TEAE dysgeusia,[4]; double-blind phase,31.4%
same,TEAE headache,[4]; double-blind phase,31.4%
same,TEAE nausea,[4]; double-blind phase,37.1%
same,TEAE vomiting,[4]; double-blind phase,20.0%
same,Subjects with a serious adverse event,[4]; follow up phase,1 subjects
same,Subjects with at least one adverse event,[4]; follow up phase,48.1%
